Results on seven compounds are retold here after patent US20190307886A1, “A CO-AMORPHOUS FORM OF A SUBSTANCE AND A PROTEIN” (University of Copenhagen, priority 2016, published 2019).

Holding throughout (assay type): physicochemical
A short description of data set [1]: Intrinsic dissolution rate from powder compacts. The settings on record: for y (mg cm^−2 min^−1), line equation of intrinsic dissolution testing; slope = intrinsic dissolution rate: Table 2a, 0.1 M phosphate buffer pH 7.2, 37° C., 50 rpm; for intrinsic dissolution rate (IDR): phosphate buffer pH 7.2, 37° C.
Procedure: The intrinsic dissolution rate (IDR) was determined from powder compacts obtained with a hydraulic press (PerkinElmer, Hydraulische Presse Model IXB-102-9, Ueberlingen, Germany). Ball-milled powders of pure drug and spray dried powders of drug-protein mixtures were compressed into tablets. Tablets of 150 mg were directly compressed into stainless steel cylinders that served as intrinsic dissolution sample holders at a pressure of 124.9 MPa for 45 secs. […] These cylinders were then placed in 900 ml of 0.1 M phosphate buffer (pH 7.2, 37° C.) dissolution medium and stirred using a magnetic bar at a rotation speed of 50 rpm. At predetermined time points (1, 5, 10, 15, 20, 25 and 30 min, some IDRs were only determined up to 20 min), 5 ml aliquots were withdrawn and immediately replaced with dissolution buffer. The obtained samples were then analyzed using UV spectrophotometer (see below). All dissolution experiments were conducted in triplicate.
Data set [2] is described as follows: Thermogravimetric analysis for measurement of residual moisture. The following applies: Table 1a; amorphous drugs and spray dried forms with WPI, WPH, WPI components, digested WPI, PVP. As to the method:
Thermogravimetric analysis for measurement of residual moisture:
Thermogravimetric analysis was performed on a TGA Discovery instrument (TA Instruments, New Castle, USA). Samples of 10 mg were placed in a platinum pan and sealed with a lid and heated from 25 to 300° C. at 10° C./min. Resulting weight-temperature diagrams were analyzed using Trios software (TA Instruments, New Castle, USA) to calculate the weight loss between 25 and 150° C.

Data set [3] in a line: Physical stability on storage over silica gel at room temperature, XRPD. The settings on record: recrystallization shown by XRPD. As to the method: The molecular interactions of the drug substance-WPI/WPH mixtures were investigated by XRPD using an X'Pert PANanalytical PRO X-ray diffractometer (PANanalytical, Almelo, The Netherlands) with Cukα radition: 1.54187 Å, current: 40 mA and acceleration voltage: 45 kV. Each of the co-amorphous forms obtained either by spray drying or ball milling were scanned (scan rate of 0.067° 2θ/s and step size of 0.026°) with reflectance mode between 2° and 35° 2θ. The collected data was analysed using X'Pert PANanalytical Collector software (PANanalytical, Almelo, The Netherlands).
All samples were stored in a desiccator over silica gel (0% relative humidity) at room temperature and a physical stability study was performed for all SD samples. Each sample was analyzed by XRPD at day 0 and subsequently once every month thereafter.

A short description of data set [4]: Powder dissolution (USP II apparatus). The procedure: Powder dissolution was performed in USP type II apparatus. […] The dissolution paddles were rotated at 50 rpm […] taking samples out at 1, 3, 5, 7, 10, 15, 20, 25, 30, 35, 40, 50, 60 and 120 mins. Each sample of 5 ml was taken out and replaced by dissolution medium. To separate powders from medium, the samples were filtered through a 0.45 μm syringe filter (Qmax, Frisinette ApS) and the first 2 ml was discarded to minimize losses due to adsorption. The samples were examined using UV Vis to analyze the drug concentration.

In the case of `COc1ccccc1OCCNCC(O)COc1cccc2[nH]c3ccccc3c12` (centres unmarked) [A CAR, carvedilol], in data set [1], the “y (mg cm^−2 min^−1), line equation of intrinsic dissolution testing; slope = intrinsic dissolution rate” value was “y = 0.0214x + 2.973 mg cm^−2 min^−1”. Moreover, in data set [1] (listed as ball milled amorphous CAR), the “intrinsic dissolution rate (IDR)” value is listed as 0.0214 mg cm^−2 min^−1. The “fold increase in IDR compared to crystalline CAR” value in data set [1] (vs C CAR) was 1.8 fold. Further, the “TGA (residual moisture content in %)” value in data set [2] is given as 3.1 ± 0.3%. The “time found to be stable (in words)” value in data set [3] is “less than a week”.

Regarding `NS(=O)(=O)c1cc(C(=O)O)c(NCc2ccco2)cc1Cl` [A FUR, furosemide], in data set [2], the “TGA (residual moisture content in %)” value was 3.6 ± 0.3%. Also, in data set [3], the “time found to be stable (in words)” value was “less than a week”.

For the compound `COc1ccc2c(c1)c(CC(=O)O)c(C)n2C(=O)c1ccc(Cl)cc1` [A IND, indomethacin], the “y (mg cm^−2 min^−1), line equation of intrinsic dissolution testing; slope = intrinsic dissolution rate” value in data set [1] is recorded as “y = 0.1333x + 4.5538 mg cm^−2 min^−1”. Moreover, the “intrinsic dissolution rate (IDR)” value in data set [1] (listed as amorphous ball milled IND) was 0.1333 mg cm^−2 min^−1. Moreover, the “TGA (residual moisture content in %)” value in data set [2] was determined as 3.2 ± 0.4%. The “powder dissolution (comparison in words)” value in data set [4] (USP type II, 200 mg in 50 ml phosphate buffer pH 7.2, 50 rpm) is on record as “more dissolution than the PM IND-WPI”. The “solubility of IND in its amorphous state” value in data set [4] (phosphate buffer pH 7.2, vs crystalline IND) was “more than double the value crystalline IND”. Also, the “time found to be stable (in words)” value in data set [3] was “less than a week”.

Take `CC(=O)Nc1ccc(O)cc1` [A PAR, paracetamol]: in data set [1], the “y (mg cm^−2 min^−1), line equation of intrinsic dissolution testing; slope = intrinsic dissolution rate” value is recorded as “y = 0.201x + 4.5947 mg cm^−2 min^−1”. Moreover, the “intrinsic dissolution rate (IDR)” value in data set [1] (listed as ball milled amorphous PAR) is 0.201 mg cm^−2 min^−1. The “fold increase in IDR compared to crystalline PAR” value in data set [1] (vs C PAR) amounted to 1.2 fold. Also, in data set [3], the “time found to be stable (in words)” value was “less than a week”.

Take `COc1ccccc1OCCNCC(O)COc1cccc2[nH]c3ccccc3c12` (centres unmarked) [C CAR, carvedilol]: the “y (mg cm^−2 min^−1), line equation of intrinsic dissolution testing; slope = intrinsic dissolution rate” value in data set [1] was “y = 0.0117x + 2.8082 mg cm^−2 min^−1”. Also, the “intrinsic dissolution rate (IDR)” value in data set [1] (listed as crystalline CAR) was 0.0117 mg cm^−2 min^−1.

As to `COc1ccc2c(c1)c(CC(=O)O)c(C)n2C(=O)c1ccc(Cl)cc1` [C IND, indomethacin], the “y (mg cm^−2 min^−1), line equation of intrinsic dissolution testing; slope = intrinsic dissolution rate” value in data set [1] is “y = 0.0787x + 4.006 mg cm^−2 min^−1”. Moreover, the “intrinsic dissolution rate (IDR)” value in data set [1] (listed as crystalline IND) came out at 0.0787 mg cm^−2 min^−1.

For the compound `CC(=O)Nc1ccc(O)cc1` [C PAR, paracetamol], in data set [1], the “y (mg cm^−2 min^−1), line equation of intrinsic dissolution testing; slope = intrinsic dissolution rate” value is “y = 0.1632x + 2.3462 mg cm^−2 min^−1”. Moreover, in data set [1] (listed as crystalline PAR), the “intrinsic dissolution rate (IDR)” value is given as 0.1632 mg cm^−2 min^−1.
